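All cell lines were grown in 96-well plates and treated with compound for 48 hours. GI50: concentration for 50% inhibition of growth. TGI: concentration producing complete growth inhibition.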 Some results are limits rather than exact numbers.

Some test systems named below: ACHN renal; HCC-2998 colon; HCT-116 colon; HL-60(TB) leukemia; IGROV1 ovarian; PC-3 prostate; SF-295 CNS; T-47D breast; UACC-62 melanoma; UO-31 renal.
Experiment in all cases: NCI anticancer screen, dose series, 48 h

For `CCn1nc(C2CCN(C(=O)CCO)CC2)nc1-c1cnc(N)c(-c2nnc(C(C)(C)C)o2)n1`, the GI50 is 3.92 µM in the assay on ACHN renal; 10.7 µM in the assay with HCC-2998 colon; 18.8 µM in the assay on HCT-116 colon; 0.263 µM in the assay with HL-60(TB) leukemia; 0.245 µM in the assay on IGROV1 ovarian; 3.2 µM in the assay with PC-3 prostate. Besides, the GI50 with SF-295 CNS is 3.27 µM; with T-47D breast, 0.0731 µM; with UACC-62 melanoma it was 2.07 µM; in the assay with UO-31 renal, 0.966 µM. Moreover, the TGI in the assay with ACHN renal was greater than 100 µM; in the assay with HCC-2998 colon, greater than 100 µM; in the assay on HCT-116 colon it was 58.7 µM; with HL-60(TB) leukemia, 97.5 µM; with IGROV1 ovarian, greater than 100 µM; in the assay with PC-3 prostate, greater than 100 µM. The TGI is greater than 100 µM in the assay on SF-295 CNS, 0.57 µM in the assay on T-47D breast, greater than 100 µM with UACC-62 melanoma and 51.7 µM in the assay with UO-31 renal.
For the compound `c1cc(OCCN2CCCC2)ccc1CNc1ccc2nc(CCC3CCCCC3)[nH]c2c1`, the GI50 in the assay with ACHN renal is 2.29 µM; in the assay with HCC-2998 colon it was 2.03 µM; in the assay with HCT-116 colon it was 1.43 µM; with HL-60(TB) leukemia it was 1.79 µM; in the assay with IGROV1 ovarian, 2.12 µM; in the assay with PC-3 prostate, 1.93 µM. The GI50 with SF-295 CNS is 1.97 µM; with T-47D breast it was 1.81 µM; in the assay with UACC-62 melanoma, 1.85 µM; in the assay with UO-31 renal, 1.42 µM. Further, the TGI in the assay on ACHN renal turned out to be 5.99 µM; with HCC-2998 colon, 4.29 µM; in the assay with HCT-116 colon it was 3.2 µM; with HL-60(TB) leukemia, 3.72 µM; in the assay with IGROV1 ovarian, 6.43 µM; with PC-3 prostate it was 5.16 µM. Further, the TGI with SF-295 CNS was determined as 3.86 µM; with T-47D breast it was 4.9 µM; in the assay with UACC-62 melanoma, 3.33 µM; with UO-31 renal, 2.75 µM.
Consider `COc1cc2c(cc1OC)[C@@H]1C(=O)c3ccc4c(c3O[C@@H]1CO2)C[C@H](C(C)C)O4`, for which the GI50 in the assay on ACHN renal was 3.13 µM; with HCC-2998 colon it was 4.09 µM; with HCT-116 colon, 0.0435 µM; in the assay on HL-60(TB) leukemia, 1.51 µM; in the assay with IGROV1 ovarian it was 14.2 µM; in the assay on PC-3 prostate, 1.98 µM. Besides, the GI50 in the assay with SF-295 CNS was 0.294 µM; with T-47D breast it was 0.175 µM; in the assay on UACC-62 melanoma, 9.24 µM; with UO-31 renal, 3.75 µM. In addition, the TGI in the assay with ACHN renal was greater than 46.4 µM; in the assay on HCC-2998 colon, greater than 61.6 µM; with HCT-116 colon, greater than 37.8 µM; in the assay with HL-60(TB) leukemia, greater than 23.8 µM; with IGROV1 ovarian, greater than 85.5 µM; in the assay with PC-3 prostate, greater than 30.5 µM. The figures for the TGI with T-47D breast, in the assay on UACC-62 melanoma and in the assay on UO-31 renal were greater than 60.6 µM, greater than 100 µM and 97.9 µM, respectively.
For `COc1ccc(Sc2[nH]c(C=O)c3ccccc23)cc1`, the GI50 with ACHN renal was 14.9 µM; in the assay with HCC-2998 colon, 5.44 µM; in the assay with HCT-116 colon it was 12.7 µM; in the assay on HL-60(TB) leukemia, 5.09 µM; in the assay on IGROV1 ovarian it was 13.8 µM; in the assay with PC-3 prostate it was 13.3 µM. For the same compound, the GI50 in the assay with SF-295 CNS is 9.16 µM; in the assay on T-47D breast, 9.08 µM; with UACC-62 melanoma, 11 µM; in the assay on UO-31 renal, 5.11 µM. Further, the TGI was 28.8 µM in the assay on ACHN renal; 18.2 µM in the assay with HCC-2998 colon; 25.3 µM with HCT-116 colon; 28.4 µM with HL-60(TB) leukemia; 37.6 µM in the assay with IGROV1 ovarian; 41.4 µM with PC-3 prostate. Further, the TGI in the assay on SF-295 CNS was determined as 26.9 µM; with T-47D breast, 30.2 µM; in the assay with UACC-62 melanoma, 26.1 µM; with UO-31 renal, 22.2 µM.
With `CC1(C)C(=O)/C=C\C(=O)C(C)(C)C2=CC=C(O2)C(C)(C)C(=O)C(Br)C(Br)C(=O)C(C)(C)C2=CC=C1O2` (centres undefined), the TGI with ACHN renal was greater than 46.4 µM; in the assay with HCC-2998 colon it was greater than 100 µM; in the assay on HCT-116 colon it was 65.6 µM; in the assay with HL-60(TB) leukemia, 18.1 µM; with IGROV1 ovarian it was greater than 85.6 µM; in the assay with PC-3 prostate, greater than 100 µM. For the same compound, the TGI in the assay with SF-295 CNS was greater than 100 µM; with T-47D breast, greater than 100 µM; with UACC-62 melanoma, 49.3 µM; in the assay on UO-31 renal it was greater than 100 µM.
Take `COc1ccc(C)c2sc(N(Cc3cccnc3)C(=O)c3ccc(C#N)cc3)nc12`: the GI50 was 34.7 µM in the assay on ACHN renal; 46.6 µM in the assay on HCC-2998 colon; 29.2 µM in the assay with HCT-116 colon; 31.1 µM with HL-60(TB) leukemia; 52 µM in the assay with IGROV1 ovarian; 30.2 µM in the assay on PC-3 prostate. The GI50 in the assay with SF-295 CNS was 51.8 µM; in the assay with T-47D breast, 26.1 µM; in the assay on UACC-62 melanoma, 31.1 µM; with UO-31 renal, 23.4 µM. Besides, the TGI with ACHN renal, with HCC-2998 colon, in the assay with HCT-116 colon, with HL-60(TB) leukemia, with IGROV1 ovarian and in the assay on PC-3 prostate was greater than 100 µM throughout. Also, the TGI in the assay on SF-295 CNS, in the assay on T-47D breast, in the assay with UACC-62 melanoma and with UO-31 renal was greater than 100 µM each time.
Turning to `O=C1OC2(c3ccc(O)cc3Oc3cc(O)ccc32)c2cccc3cccc1c23`, the GI50 was 16.7 µM in the assay on ACHN renal; 48.4 µM with HCC-2998 colon; 22.4 µM with HCT-116 colon; 30.6 µM in the assay with HL-60(TB) leukemia; 19.1 µM with IGROV1 ovarian; 36.2 µM in the assay on PC-3 prostate. Besides, the GI50 in the assay with SF-295 CNS is 32.3 µM; with T-47D breast, 28.6 µM; in the assay with UACC-62 melanoma, 17.3 µM; in the assay with UO-31 renal, 17.1 µM. The TGI is 44 µM in the assay on ACHN renal; greater than 100 µM in the assay with HCC-2998 colon; greater than 100 µM in the assay on HCT-116 colon; 81.6 µM in the assay on HL-60(TB) leukemia; 57.4 µM in the assay with IGROV1 ovarian; greater than 100 µM in the assay with PC-3 prostate. In addition, the TGI with SF-295 CNS is greater than 100 µM; in the assay with T-47D breast, 99.6 µM; with UACC-62 melanoma, 42.5 µM; in the assay on UO-31 renal, greater than 100 µM.
In the case of `COc1cc(-n2cc(-c3ccc(Cl)cc3)n(-c3ccccc3)c2=O)cc(OC)c1OC`, the GI50 is 25.8 µM with ACHN renal; 22.9 µM in the assay on HCC-2998 colon; 13.7 µM in the assay with HCT-116 colon; 2.82 µM with HL-60(TB) leukemia; 7.87 µM with IGROV1 ovarian; greater than 37.7 µM in the assay on PC-3 prostate. In addition, the GI50 in the assay with SF-295 CNS is 19.3 µM; in the assay on T-47D breast, 8.01 µM; with UACC-62 melanoma, 4.92 µM; with UO-31 renal it was 16.6 µM. The TGI was greater than 100 µM in the assay with ACHN renal; greater than 100 µM with HCC-2998 colon; greater than 89 µM in the assay with HCT-116 colon; greater than 47.6 µM with HL-60(TB) leukemia; 36.2 µM with IGROV1 ovarian; greater than 100 µM in the assay on PC-3 prostate. Moreover, the TGI with SF-295 CNS was greater than 100 µM; in the assay with T-47D breast it was 74 µM; in the assay with UACC-62 melanoma it was 28.2 µM; in the assay on UO-31 renal it was greater than 93.9 µM.
